Data taken from PubChem BioAssay (NCI).
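Five concentrations, 48 hours, 96-well plates. GI50 is the concentration that inhibits growth by half. TGI: total growth inhibition.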

Assays:
Experiment in all cases: growth of human tumour cells (NCI), 48 h
SK-OV-3 ovarian = system: SK-OV-3 ovarian
MDA-N = system: MDA-N
UACC-62 melanoma = system: UACC-62 melanoma
SW-620 colon = system: SW-620 colon
K-562 leukemia = system: K-562 leukemia
HOP-92 NSCLC = system: HOP-92 NSCLC
SK-MEL-28 melanoma = system: SK-MEL-28 melanoma
RPMI-8226 leukemia = system: RPMI-8226 leukemia
OVCAR-8 ovarian = system: OVCAR-8 ovarian
COLO 205 colon = system: COLO 205 colon
HCT-116 colon = system: HCT-116 colon
HCC-2998 colon = system: HCC-2998 colon
U251 CNS = system: U251 CNS
MALME-3M melanoma = system: MALME-3M melanoma
UACC-257 melanoma = system: UACC-257 melanoma
SK-MEL-2 melanoma = system: SK-MEL-2 melanoma
HS 578T breast = system: HS 578T breast
HL-60(TB) leukemia = system: HL-60(TB) leukemia

| SMILES | TGI (SK-OV-3 ovarian) [µM] | TGI (MDA-N) [µM] | TGI (UACC-62 melanoma) [µM] | TGI (SW-620 colon) [µM] | TGI (K-562 leukemia) [µM] | TGI (HOP-92 NSCLC) [µM] | TGI (SK-MEL-28 melanoma) [µM] | TGI (RPMI-8226 leukemia) [µM] | TGI (OVCAR-8 ovarian) [µM] | TGI (COLO 205 colon) [µM] | TGI (HCT-116 colon) [µM] | TGI (HCC-2998 colon) [µM] | TGI (U251 CNS) [µM] | TGI (MALME-3M melanoma) [µM] | TGI (UACC-257 melanoma) [µM] | TGI (SK-MEL-2 melanoma) [µM] | TGI (HS 578T breast) [µM] | TGI (HL-60(TB) leukemia) [µM] | GI50 (UACC-62 melanoma) [µM] | GI50 (HCT-116 colon) [µM] |
| --- | --- | --- | --- | --- | --- | --- | --- | --- | --- | --- | --- | --- | --- | --- | --- | --- | --- | --- | --- | --- |
| Cc1ccc(Nc2sc(C)cc2C#N)c([N+](=O)[O-])c1 | > 100 | > 100 | > 100 | > 100 | > 100 | > 100 | > 100 | > 100 | > 100 | > 100 | > 100 | > 100 | > 100 | > 100 | > 100 | – | – | – | – | – |
| CCc1n[nH]c(=O)n1NC(=O)c1ccccc1C(=O)O | > 100 | > 100 | > 100 | > 100 | > 100 | > 100 | > 100 | > 100 | > 100 | > 100 | > 100 | > 100 | > 100 | – | > 100 | > 100 | – | – | – | – |
| COc1cc2c(cc1OC)C(Cc1ccccc1CCCl)=NCC2 | > 100 | – | > 100 | > 100 | > 100 | > 100 | > 100 | 98.1 | > 100 | > 100 | > 100 | > 100 | > 100 | – | > 100 | > 100 | > 100 | 97.2 | – | – |
| COc1ccc2c(c1)CCCN1CCc3cc(OC)c(OC)cc3C21 (stereo not drawn) | > 100 | > 100 | > 100 | > 100 | > 100 | – | > 100 | > 100 | > 100 | > 100 | > 100 | > 100 | > 100 | > 100 | > 100 | – | – | > 100 | – | – |
| CC(C)CC1[C@@H](OCc2ccccc2)COS(=O)(=O)N1Cc1ccccc1 (stereo partly drawn) | > 100 | – | > 100 | > 100 | > 100 | > 100 | > 100 | > 100 | > 100 | > 100 | > 100 | – | > 100 | > 100 | > 100 | > 100 | 70 | > 100 | – | – |
| Cc1cc(O)c(/C=N/c2nc(-c3cccc([N+](=O)[O-])c3)cs2)c(=O)o1 | > 100 | – | > 100 | > 100 | – | > 100 | > 100 | – | > 100 | > 100 | > 100 | > 100 | > 100 | – | > 100 | > 100 | – | 47.2 | – | – |
| COc1ccc(C2SCC(=O)N2NC(=O)C(C)Oc2ccccc2Cl)cc1 (stereo not drawn) | – | – | > 100 | > 100 | > 100 | 77.4 | > 100 | > 100 | > 100 | 64.4 | > 100 | > 100 | > 100 | – | > 100 | 50 | > 100 | 35.2 | – | – |
| CC([C@H]1CCC2C3CCC4CC5(CC[C@]4(C)C3CC[C@@]21C)c1ccccc1C(=O)N5C)N(C)C (stereo partly drawn) | > 100 | – | 73 | > 100 | 92.2 | > 100 | 35 | > 100 | > 100 | > 100 | > 100 | > 100 | > 100 | 42.5 | – | 42.9 | – | 46.3 | – | – |
| O=C1/C(=C/c2cccs2)NC(=S)N1CN1CCOCC1 | > 100 | > 100 | > 100 | > 100 | > 100 | > 100 | > 100 | > 100 | > 100 | > 100 | > 100 | – | > 100 | – | > 100 | > 100 | > 100 | – | – | – |
| O=C(NCCCCNCCCNC(=O)c1cc(-c2ccccc2)nc2ccccc12)c1cc(-c2ccccc2)nc2ccccc12 | – | 3.23 | 3.9 | 3.1 | – | 3.01 | 3.42 | 6.33 | 3.06 | – | 3.2 | 3.09 | 3.32 | 3.23 | 3.36 | 3.49 | – | – | – | – |
| CCOC(=O)c1cc(=O)oc2c1N(C)c1ncccc1N2 | > 100 | > 100 | > 100 | > 100 | > 100 | – | > 100 | > 100 | > 100 | > 100 | > 100 | > 100 | > 100 | – | > 100 | > 100 | > 100 | – | – | – |
| CSc1nc(O)c(/C=C2\C=Nc3ccccc32)[nH]1 | > 100 | – | > 100 | > 100 | > 100 | > 100 | > 100 | > 100 | > 100 | > 100 | > 100 | 90.6 | > 100 | > 100 | > 100 | > 100 | > 100 | 94.1 | – | – |
| O[C@H]1[C@H](O)[C@H](O)CN2CCC[C@@H](O)[C@H]12 | > 100 | – | > 100 | > 100 | > 100 | > 100 | > 100 | > 100 | > 100 | > 100 | > 100 | > 100 | > 100 | – | > 100 | > 100 | > 100 | > 100 | – | – |
| O=c1c(-c2ccccc2Cl)coc2cc(F)ccc12 | > 100 | 25 | 73.6 | > 100 | – | 87.1 | > 100 | – | > 100 | > 100 | > 100 | – | 35.3 | – | > 100 | > 100 | > 100 | 31.2 | – | – |
| COc1ccc(Nc2nc(N)c(C(=O)c3ccccc3)s2)cc1 | > 100 | – | > 100 | > 100 | > 100 | > 92.7 | > 100 | 32.7 | > 100 | 0.333 | 3.38 | – | > 100 | > 100 | > 100 | 32.2 | 3.18 | 0.271 | – | – |
| CC(C)(C)OC(=O)Nc1cc(-c2ccccc2)co1 | > 100 | > 100 | > 100 | > 100 | > 100 | 86.8 | > 100 | > 100 | > 100 | > 100 | > 100 | > 100 | > 100 | – | > 100 | > 100 | – | > 100 | – | – |
| C=Cc1cc2c(cc1O)CC[C@@H]1[C@@H]2CC[C@]2(C)[C@@H](O)CC[C@@H]12 | 28.3 | 7.76 | 8.65 | 14.2 | 20.4 | – | 16.7 | – | – | 30.1 | 12.1 | 25.4 | 15.1 | 10.4 | 8.87 | 21.1 | – | 7.27 | 2.53 | 2.57 |
| c1ccc(/N=C2\c3ccccc3CN2c2ccccn2)nc1 | > 100 | > 100 | > 100 | > 100 | > 100 | 72.7 | > 100 | > 100 | > 100 | > 100 | > 100 | > 100 | > 100 | – | > 100 | > 100 | > 100 | – | – | – |
| Cn1c2ccccc2n2c(=O)c3cccnc3c(C#N)c12 | > 100 | > 100 | – | > 100 | – | > 100 | > 100 | > 100 | > 100 | > 100 | > 100 | – | > 100 | > 100 | > 100 | – | – | – | – | – |
| CC(Oc1ccc(OCC2CCCCC2)cc1)C(=O)O (stereo not drawn) | > 100 | – | > 100 | > 100 | > 100 | – | > 100 | – | > 100 | – | > 100 | – | > 100 | > 100 | > 100 | > 100 | – | > 100 | – | – |
| CC(=O)NNC(=S)/N=C/c1c(O)cc(C)oc1=O | > 100 | > 100 | – | > 100 | – | > 100 | > 100 | – | > 100 | > 100 | > 100 | > 100 | > 100 | – | > 100 | > 100 | – | > 100 | – | – |
| CC(C)NC(=O)OCc1c(COC(=O)NC(C)C)c(-c2ccc[n+](COC(=O)C3CC3)c2)n2c1CCC2 | > 100 | – | > 100 | > 100 | > 100 | > 100 | > 100 | > 100 | > 100 | > 100 | > 100 | > 100 | > 100 | > 100 | > 100 | > 100 | > 100 | > 100 | – | – |
| O=C1CC(c2ccc[nH]2)=NN1c1ccccc1 | > 100 | > 100 | > 100 | > 100 | > 100 | > 100 | > 100 | > 100 | > 100 | > 100 | > 100 | – | > 100 | > 100 | > 100 | > 100 | – | > 100 | – | – |
| Nc1nc(N)c2nc(-c3ccco3)cnc2n1 | > 100 | – | > 100 | – | > 100 | > 100 | > 100 | > 100 | > 100 | > 100 | > 100 | > 100 | > 100 | > 100 | > 100 | – | – | 89.6 | – | – |
